Data: EPA's ToxValDB 9.5 (doi:10.2903/j.efsa.2009.1348)
Values after ≈ are worked out from the molar mass of the structure shown.

Experiments:
Oncorhynchus mykiss = conditions: chronic/long-term; duration: 28 days
Bird = conditions: for LD50: acute, unspecified
Lepomis macrochirus = conditions: acute; duration: 96 hours; mortality
Oryctolagus sp. = conditions: reproduction developmental; reproduction
Daphnia magna = conditions: chronic/long-term; duration: 21 days; reproduction
Bibionidae = conditions: chronic/long-term; duration: 28 days
Apis mellifera = conditions: acute; duration: 48 hours; oral; unspecified; mortality
Canidae = conditions: chronic; duration: 1 years; oral; Dog Other; organ weight
[1] = chronic/long-term

SMILES	NOEC (Oncorhynchus mykiss) [mg/L]	LD50 (Bird; oral, mortality)	LC50 (Lepomis macrochirus) [µg/mL]	NOAEL (Oryctolagus sp.) [mg/kg-day]	LD50 (Rattus norvegicus; acute, oral, mortality) [mg/kg]	NOAEL (Rattus norvegicus; chronic, duration: 2 years, organ weight) [mg/kg-day]	NOAEL (Rattus norvegicus; reproduction developmental, body weight) [mg/kg-day]	LEL (Aphidius rhopalosiphi; chronic/long-term, reproduction) [g/ha]	LEL (Aphidius rhopalosiphi; not reported, mortality) [g/ha]	NOEC (Daphnia magna) [mg/L]	NOEC (Bibionidae) [mg/L]	LD50 (Apis mellifera) [µg/piece]	NOAEL (Canidae) [mg/kg-day]	NOEC (Bird; reproductive) [mg/kg-day]	LC50 (Bird; short-term, oral, feed, mortality) [mg/kg-day]	LC50 (Tagia sp.; acute, mortality) [mg/kg]	NOEC (Tagia sp.; chronic/long-term) [g/ha]	NOAEL [1] [mg/kg-day]
COC(=O)[C@@H](C)Oc1ccc(Oc2ncc(C(F)(F)F)cc2Cl)cc1 [Haloxyfop-P-methyl]	0.0052	1160 mg/kg-day	–	–	–	–	–	–	–	–	–	–	–	–	–	–	–	–
C[C@@H](Oc1ccc(Oc2ncc(C(F)(F)F)cc2Cl)cc1)C(=O)O [Haloxyfop-P]	–	414 mg/kg	0.0884 (≈ 0.244 µM)	7.5	300	0.065	0.065	5.7	108	0.509	2.5	> 100	0.5	17.1	> 1110	830	810	1
